Here are results for 7 compounds from patent publication US20250032623A1, “HETEROBIFUNCTIONAL COMPOUNDS AND THEIR USE IN TREATING DISEASE” (HALDA THERAPEUTICS OPCO, INC., priority 2021, published 2025).

Assay [1] addresses T1, EGFR T790M, L858R (amino acids 669-1011 Accession Number NP_005219.2) (Homo sapiens, UniProt P00533, L858R/T790M).
T1 construct: purchased Eurofins Discovery; host or cells: mammalian cells (HEK-293)
Nature of the assay: KdELECT binding assay (Eurofins Discovery), EGFR T790M, L858R. The following applies: read-out: EGFR DM Kd. Summed up:
(§1)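 Competition binding: WT kinase as T7 phage fusion from E. coli, T790M/L858R produced in HEK-293 and DNA-tagged, incubated 1 h at room temperature with immobilized ligand beads and compound (11-point 3-fold series, 0.9% DMSO). Bead-bound kinase eluted and quantified by qPCR to derive Kd.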

The target of assay [2] is T2, full-length CDK9 (amino acids 1-372; Accession Number NP_001252.1) (Homo sapiens, UniProt P50750).
T2 construct: full-length CDK9 (amino acids 1-372); purchased; host or cells: bacteria (E. coli, BL21-derived, T7 phage)
The assay can be described thus: KdELECT binding assay, CDK9. The procedure: Exemplary compounds were tested for ability to bind to full-length CDK9 (amino acids 1-372; Accession Number NP_001252.1) expressed from bacteria. Compounds were tested using a KdELECT assay.
Kinase-tagged T7 phage strains were prepared in an E. coli host derived from the BL21 strain. E. coli were grown to log-phase and infected with T7 phage and incubated with shaking at 32° C. until lysis. The lysates were centrifuged and filtered to remove cell debris. The remaining kinases were produced in HEK-293 cells and subsequently tagged with DNA for qPCR detection. Streptavidin-coated magnetic beads were treated with biotinylated small molecule ligands for 30 minutes at room temperature to generate affinity resins for kinase assays. The liganded beads were blocked with excess biotin and washed with blocking buffer (SeaBlock (Pierce), 1% BSA, 0.05% Tween 20, 1 mM DTT) to remove unbound ligand and to reduce non-specific binding. Binding reactions were assembled by combining kinases, liganded affinity beads, and test compounds in 1× binding buffer (20% SeaBlock, 0.17×PBS, 0.05% Tween 20, 6 mM DTT). Test compounds were prepared as 111× stocks in 100% DMSO. Kd values were determined using an 11-point 3-fold compound dilution series with three DMSO control points. All compounds for Kd measurements are distributed by acoustic transfer (non-contact dispensing) in 100% DMSO. The compounds were then diluted directly into the assays such that the final concentration of DMSO was 0.9%. All reactions performed in polypropylene 384-well plate. Each was a final volume of 0.02 mL. The assay plates were incubated at room temperature with shaking for 1 hour and the affinity beads were washed with wash buffer (1×PBS, 0.05% Tween 20). The beads were then re-suspended in elution buffer (1×PBS, 0.05% Tween 20, 0.5 μM nonbiotinylated affinity ligand) and incubated at room temperature with shaking for 30 minutes. The kinase concentration in the eluates was measured by qPCR.

Assay [3] has as its target T3, EGFR WT (amino acids 669-1011, Accession Number NP_005219.2) (Homo sapiens, UniProt P00533).
T3 construct: purchased Eurofins Discovery; host or cells: bacteria (E. coli, BL21-derived, T7 phage)
Nature of the assay: KdELECT binding assay (Eurofins Discovery), EGFR WT. The gist of the method: as §1

In assay [4] the target is T4, EGFR (Homo sapiens, UniProt P00533).
T4 construct: purchased
Nature of the assay: KdELECT binding assay, EGFR. The gist of the method: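 Competition binding: DNA- or T7 phage-tagged EGFR was incubated 1 h at room temperature with immobilized ligand beads and an 11-point 3-fold compound series (0.9% DMSO final). Bead-bound kinase was eluted and quantified by qPCR to derive Kd.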

Assay [5] relates to HEK293 cells. Nature of the assay: Cellular growth inhibition assay (CellTiter-Glo), HEK293 cells. The settings on record: Homo sapiens, 72 h, three days compound treatment, CellTiter-Glo 2.0, read-out: CTG HEK293 GI50. It counts as cell-based. Summed up: (§2)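 HEK293 or HeLa cells seeded at 500 cells/well in DMEM with 10% FBS, treated after 24 h with titrated compound for three days at 37 °C, 5% CO2. CellTiter-Glo 2.0 luminescence read on Day 0 and Day 3, normalized to DMSO, four-parameter fit giving GI50.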

The target of assay [6] is T5, KRAS G12C (Homo sapiens, UniProt P01116, G12C).
T5 construct: Kras (aa 2-169), GST; purchased Reaction Biology Corporation (RBC)
Nature of the assay: KRAS G12C nucleotide exchange assay (SOS1 mediated, HTRF). It counts as biochemical. The settings on record: 1 hr pre-incubation at RT, read-out: IC50 (inhibition of KRas G12C). Summed up: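 HTRF nucleotide exchange using KRAS G12C mixed with anti-GST Tb antibody and pre-incubated with compound for 1 h at RT. Exchange was started with SOS1 plus labelled GTP. Compounds ran as 10-point, 3-fold dilutions from 10 μM, with no-SOS1 or top concentration as blank and IC50 from a variable-slope sigmoidal fit.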

Assay [7] relates to HeLa cells. The assay can be described thus: Cellular growth inhibition assay (CellTiter-Glo), HeLa cells. It counts as cell-based. The settings on record: Homo sapiens, 72 h, three days compound treatment, CellTiter-Glo 2.0, read-out: CTG HELA GI50. The gist of the method: as §2

SMILES strings stand for the structures. Bounds are passed on as bounds.

T5 sequence (P01116 2-169 isoform P01116-2 G12C): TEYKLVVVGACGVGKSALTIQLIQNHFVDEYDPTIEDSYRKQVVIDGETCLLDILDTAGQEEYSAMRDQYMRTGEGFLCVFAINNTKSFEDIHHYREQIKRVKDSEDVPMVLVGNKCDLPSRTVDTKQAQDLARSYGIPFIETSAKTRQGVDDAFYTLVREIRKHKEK
T2 sequence (P50750 whole entry, the tested form may be a part): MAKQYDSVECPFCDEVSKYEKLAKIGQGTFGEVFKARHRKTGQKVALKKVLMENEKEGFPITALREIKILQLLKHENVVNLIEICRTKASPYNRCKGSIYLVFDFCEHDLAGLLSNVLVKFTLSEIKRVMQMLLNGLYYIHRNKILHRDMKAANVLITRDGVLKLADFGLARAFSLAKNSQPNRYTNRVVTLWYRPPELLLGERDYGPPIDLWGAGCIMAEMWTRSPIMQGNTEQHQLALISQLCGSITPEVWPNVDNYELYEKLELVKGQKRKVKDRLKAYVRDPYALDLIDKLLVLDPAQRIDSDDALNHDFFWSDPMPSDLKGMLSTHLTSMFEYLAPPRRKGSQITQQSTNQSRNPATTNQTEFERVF
T3 sequence (P00533 669-1011): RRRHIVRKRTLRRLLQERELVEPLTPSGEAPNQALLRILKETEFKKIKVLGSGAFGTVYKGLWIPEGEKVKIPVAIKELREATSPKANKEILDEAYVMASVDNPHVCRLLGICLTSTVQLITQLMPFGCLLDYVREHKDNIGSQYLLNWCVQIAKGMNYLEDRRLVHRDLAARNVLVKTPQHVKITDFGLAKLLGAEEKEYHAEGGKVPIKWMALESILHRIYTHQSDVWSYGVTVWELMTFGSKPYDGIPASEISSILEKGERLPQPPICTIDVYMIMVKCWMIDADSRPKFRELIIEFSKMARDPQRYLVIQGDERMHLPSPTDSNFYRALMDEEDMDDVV
T1 sequence (P00533 669-1011 T790M/L858R): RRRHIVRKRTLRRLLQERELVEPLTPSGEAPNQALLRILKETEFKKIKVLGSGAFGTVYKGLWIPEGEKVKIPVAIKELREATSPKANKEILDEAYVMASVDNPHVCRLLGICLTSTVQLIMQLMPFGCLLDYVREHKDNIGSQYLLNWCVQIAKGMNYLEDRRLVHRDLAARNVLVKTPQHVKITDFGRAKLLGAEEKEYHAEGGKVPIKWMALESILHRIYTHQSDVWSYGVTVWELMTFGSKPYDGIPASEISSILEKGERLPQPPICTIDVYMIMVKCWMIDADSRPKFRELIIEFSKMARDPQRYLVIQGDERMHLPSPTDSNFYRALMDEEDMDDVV
T4 sequence (P00533 25-1210): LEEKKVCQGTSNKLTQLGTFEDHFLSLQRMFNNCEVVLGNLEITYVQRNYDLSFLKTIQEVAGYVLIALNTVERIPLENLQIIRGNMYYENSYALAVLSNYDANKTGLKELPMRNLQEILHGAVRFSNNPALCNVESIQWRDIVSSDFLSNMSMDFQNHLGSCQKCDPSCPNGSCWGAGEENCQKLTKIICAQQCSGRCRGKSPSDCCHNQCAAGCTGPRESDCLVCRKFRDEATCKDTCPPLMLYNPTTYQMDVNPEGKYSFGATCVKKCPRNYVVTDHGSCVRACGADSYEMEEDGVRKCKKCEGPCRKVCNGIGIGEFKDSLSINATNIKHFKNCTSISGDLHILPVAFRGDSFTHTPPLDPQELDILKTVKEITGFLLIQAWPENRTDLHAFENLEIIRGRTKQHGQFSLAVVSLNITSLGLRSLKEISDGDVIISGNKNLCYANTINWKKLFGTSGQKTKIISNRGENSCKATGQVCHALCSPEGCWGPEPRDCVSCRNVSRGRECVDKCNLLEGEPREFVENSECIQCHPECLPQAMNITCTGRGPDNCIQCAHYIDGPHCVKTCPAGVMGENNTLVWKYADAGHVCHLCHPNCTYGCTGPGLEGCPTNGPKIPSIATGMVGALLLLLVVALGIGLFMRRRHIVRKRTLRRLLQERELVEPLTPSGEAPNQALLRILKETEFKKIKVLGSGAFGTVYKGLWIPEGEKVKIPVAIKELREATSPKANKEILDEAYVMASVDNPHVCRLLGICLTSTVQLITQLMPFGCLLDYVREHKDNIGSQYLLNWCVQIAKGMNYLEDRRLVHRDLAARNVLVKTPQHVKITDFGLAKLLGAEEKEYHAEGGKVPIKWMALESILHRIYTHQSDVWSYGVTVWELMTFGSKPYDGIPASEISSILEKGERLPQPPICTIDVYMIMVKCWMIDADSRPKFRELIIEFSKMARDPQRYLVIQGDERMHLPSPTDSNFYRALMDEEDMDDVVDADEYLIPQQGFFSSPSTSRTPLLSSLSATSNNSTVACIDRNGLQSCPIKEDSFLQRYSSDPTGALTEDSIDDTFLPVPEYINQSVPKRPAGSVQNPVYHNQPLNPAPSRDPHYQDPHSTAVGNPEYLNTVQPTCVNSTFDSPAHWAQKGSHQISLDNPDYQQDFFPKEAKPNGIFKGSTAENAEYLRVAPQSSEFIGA

In the case of `C=CC(=O)Nc1cc(Nc2nccc(-c3cn(C)c4ccccc34)n2)c(OC)cc1N(C)CCN(C)CCOCCOCCNS(=O)(=O)c1ccc(Nc2ncc(Br)c(Nc3cccc(F)c3C(N)=O)n2)cc1` [Compound I-33, 2-[[5-bromo-2-[4-[2-[2-[2-[2-[5-methoxy-N-methyl-4-[[4-(1-methylindol-3-yl)pyrimidin-2-yl]amino]-2-(prop-2-enoylamino)anilino]ethyl-methyl-amino]ethoxy]ethoxy]ethyl-sulfamoyl]anilino]pyrimidin-4-yl]amino]-6-fluoro-benzamide], the equilibrium dissociation constant (Kd) in assay [1] is < 50 nM; in assay [2], 500 to 2500 nM; in assay [3], 50 to 500 nM; in assay [4], < 50 nM.

Turning to `CCc1cnn2c(NCc3ccc(OCCOCCOCCOCCOCCOC/C=C/C(=O)N4CCN(c5nc(OC[C@@H]6CCCN6C)nc6c5CCN(c5cccc7cccc(Cl)c57)C6)C[C@@H]4CC#N)nc3)cc(N3CCCCC3CCO)nc12` (stereo partly drawn) [Compound I-86, 2-[(2S)-4-[7-(8-chloro-1-naphthyl)-2-[[(2S)-1-methylpyrrolidin-2-yl]methoxy]-6,8-dihydro-5H-pyrido[3,4-d]pyrimidin-4-yl]-1-[(E)-4-[2-[2-[2-[2-[2-[[5-[[[3-ethyl-5-[2-(2-hydroxyethyl)-1-piperidyl]pyrazolo[1,5-a]pyrimidin-7-yl]amino]methyl]-2-pyridyl]oxy]ethoxy]ethoxy]ethoxy]ethoxy]ethoxy]but-2-enoyl]piperazin-2-yl]acetonitrile], the equilibrium dissociation constant (Kd) in assay [2] was < 50 nM. In addition, the values for the GI50 in assay [5] and in assay [7] were 500 to 1500 nM and < 500 nM, respectively. In addition, the IC50 in assay [6] was in the range of 100 to 1000 nM.

`CCc1cnn2c(NCc3ccc(OCCOCCOCCOC4CCN(C/C=C/C(=O)N5CCN(c6nc(OC[C@@H]7CCCN7C)nc7c6CCN(c6cccc8cccc(Cl)c68)C7)C[C@@H]5CC#N)CC4)nc3)cc(N3CCCC[C@H]3CCO)nc12` [Compound I-90, 2-((S)-4-(7-(8-chloronaphthalen-1-yl)-2-(((S)-1-methylpyrrolidin-2-yl)methoxy)-5,6,7,8-tetrahydropyrido [3,4-d]pyrimidin-4-yl)-1-((E)-4-(4-(2-(2-(2-((5-(((3-ethyl-5-((S)-2-(2-hydroxyethyl)piperidin-1-yl)pyrazolo[1,5-a]pyrimidin-7-yl)amino)methyl)pyridin-2-yl)oxy)ethoxy)ethoxy)ethoxy)piperidin-1-yl)but-2-enoyl)piperazin-2-yl)acetonitrile]: the dissociation constant Kd in assay [2] is < 50 nM. The 50% growth inhibitory concentration (GI50) in assay [5] and in assay [7] was < 500 nM in each case. In addition, the half-inhibitory concentration (IC50) in assay [6] was < 100 nM.

For `CCc1cnn2c(NCc3ccc(OCCOCCOCCOCCOCCN(C)C/C=C/C(=O)N4CCN(c5nc(OC[C@@H]6CCCN6C)nc6c5CCN(c5cccc7cccc(Cl)c57)C6)C[C@@H]4CC#N)nc3)cc(N3CCCC[C@H]3CCO)nc12` [Compound I-92, 2-((S)-4-(7-(8-chloronaphthalen-1-yl)-2-(((S)-1-methylpyrrolidin-2-yl)methoxy)-5,6,7,8-tetrahydropyrido [3,4-d]pyrimidin-4-yl)-1-((E)-1-((5-(((3-ethyl-5-((S)-2-(2-hydroxyethyl)piperidin-1-yl)pyrazolo[1,5-a]pyrimidin-7-yl)amino)methyl)pyridin-2-yl)oxy)-15-methyl-3,6,9,12-tetraoxa-15-azanonadec-17-en-19-oyl)piperazin-2-yl)acetonitrile], the Kd in assay [2] was > 2500 nM. In addition, the concentration for 50% growth inhibition (GI50) in assay [5] was 500 to 1500 nM; in assay [7], < 500 nM. Moreover, in assay [6], the IC50 is < 100 nM.

With `C=CC(=O)Nc1cc(Nc2nccc(-c3cn(C)c4ccccc34)n2)c(OC)cc1N(C)CCN(C)CCOCCOCCOCCOCCOc1ccc(CNc2cc(N3CCCC[C@H]3CCO)nc3c(CC)cnn23)cn1` [Compound I-132], the Kd in assay [1] is < 50 nM; in assay [2], < 50 nM; in assay [3], 50 to 500 nM; in assay [4] it was 50 to 500 nM. The concentration for 50% growth inhibition (GI50) in assay [5] and in assay [7] was < 500 nM each time.

As for `C=CC(=O)N[C@@H]1CN(c2nc(Nc3cn(CCOCCOCCOCCOCCNS(=O)(=O)c4ccc(Nc5ncc(Br)c(Nc6cccc(F)c6C(N)=O)n5)cc4)nc3OC)c3ncn(C)c3n2)C[C@H]1F` [Compound I-138, 2-[[5-bromo-2-[4-[2-[2-[2-[2-[2-[4-[[2-[(3R,4R)-3-fluoro-4-(prop-2-enoylamino)pyrrolidin-1-yl]-9-methyl-purin-6-yl]amino]-3-methoxy-pyrazol-1-yl]ethoxy]ethoxy]ethoxy]ethoxy]ethylsulfamoyl]anilino]pyrimidin-4-yl]amino]-6-fluoro-benzamide], the dissociation constant Kd in assay [1] was < 50 nM; in assay [2], 500 to 2500 nM; in assay [3], < 50 nM; in assay [4], < 50 nM. The GI50 in assay [5] and in assay [7] was > 5000 nM throughout.

On to `C=CC(=O)N[C@@H]1CN(c2nc(Nc3cn(CCOCCOCCOCCOCCOCCOCCNS(=O)(=O)c4ccc(Nc5ncc(Br)c(Nc6cccc(F)c6C(N)=O)n5)cc4)nc3OC)c3ncn(C)c3n2)C[C@H]1F` [Compound I-143, 2-[[5-bromo-2-[4-[2-[2-[2-[2-[2-[2-[2-[4-[[2-[(3R,4R)-3-fluoro-4-(prop-2-enoylamino)pyrrolidin-1-yl]-9-methyl-purin-6-yl]amino]-3-methoxy-pyrazol-1-yl]ethoxy]ethoxy]ethoxy]ethoxy]ethoxy]ethoxy]ethylsulfamoyl]anilino]pyrimidin-4-yl]amino]-6-fluoro-benzamide], for which the Kd in assay [1] was < 50 nM; in assay [2] it was 500 to 2500 nM; in assay [3] it was < 50 nM; in assay [4], < 50 nM. Moreover, the concentration for 50% growth inhibition (GI50) in assay [5] and in assay [7] was > 5000 nM each time.
